Measurements as given in PubChem BioAssay (NCI).
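Results reflect a 48-hour exposure of cells in 96-well plates to compound at five concentrations. TGI: concentration producing complete growth inhibition.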

Legend:
Assay in all cases: inhibition of tumour cell growth, NCI panel, 48 h
[1] = tested on: HL-60(TB) leukemia
[2] = tested on: OVCAR-3 ovarian
[3] = tested on: TK-10 renal
[4] = tested on: LOX IMVI melanoma
[5] = tested on: DU-145 prostate
[6] = tested on: OVCAR-8 ovarian
[7] = tested on: MDA-MB-435
[8] = tested on: MOLT-4 leukemia
[9] = tested on: NCI-H23 lung
[10] = tested on: SK-OV-3 ovarian
[11] = tested on: ACHN renal
[12] = tested on: NCI/ADR-RES ovarian
[13] = tested on: SF-295 CNS
[14] = tested on: SR leukemia
[15] = tested on: CCRF-CEM leukemia
[16] = tested on: 786-0 renal
[17] = tested on: UO-31 renal
[18] = tested on: SK-MEL-28 melanoma
[19] = tested on: A498 renal
[20] = tested on: HCT-116 colon
[21] = tested on: SW-620 colon
[22] = tested on: KM12 colon
[23] = tested on: SN12C renal
[24] = tested on: COLO 205 colon
[25] = tested on: HOP-62 NSCLC
[26] = tested on: UACC-257 melanoma
[27] = tested on: BT-549 breast
[28] = tested on: HT29 colon
[29] = tested on: U251 CNS
[30] = tested on: NCI-H226 lung
[31] = tested on: NCI-H460 lung
[32] = tested on: HCC-2998 colon
[33] = tested on: T-47D breast
[34] = tested on: NCI-H522 lung
[35] = tested on: OVCAR-5 ovarian
[36] = tested on: PC-3 prostate
[37] = tested on: MDA-MB-231 breast
[38] = tested on: HS 578T breast
[39] = tested on: MDA-N
[40] = tested on: SF-539 CNS
[41] = tested on: EKVX NSCLC
[42] = tested on: MALME-3M melanoma
[43] = tested on: A549 NSCLC
[44] = tested on: HCT-15 colon
[45] = tested on: HOP-92 NSCLC
[46] = tested on: MCF7 breast
[47] = tested on: CAKI-1 renal
[48] = tested on: IGROV1 ovarian
[49] = tested on: UACC-62 melanoma
[50] = tested on: RPMI-8226 leukemia
[51] = tested on: SK-MEL-5 melanoma
[52] = tested on: SF-268 CNS
[53] = tested on: SNB-19 CNS
[54] = tested on: OVCAR-4 ovarian
[55] = tested on: SK-MEL-2 melanoma
[56] = tested on: M14 melanoma
[57] = tested on: RXF 393 renal

Measured: TGI

COc1ccc(C2=Nn3c(nc4sc(-c5ccccc5)cc4c3=O)SC2)cc1
not listed: [53] | [54] | [55] | [56] | [57]
> 100 µM: all other assays above

CN(C)/C=C(\C(=O)c1ccccc1)n1nc(-c2ccccc2)cc1-c1ccccc1
not listed: [17]
> 10 µM: all other assays above
